Test results from paper PMC3722775, “1-Aryl-3-[4-(thieno[3,2-d]pyrimidin-4-yloxy)phenyl]ureas as VEGFR-2 Tyrosine Kinase Inhibitors: Synthesis, Biological Evaluation, and Molecular Modelling Studies” (BioMed Research International, 2013).

Tests used:
VEGFR-2 = biological target: T1, VEGFR-2 (Homo sapiens, UniProt P35968); experiment: VEGFR-2 enzymatic inhibition assay (Z'-LYTE-Tyr1 Peptide FRET kit); assay type: biochemical; conditions: enzymatic FRET-based assay, 10 μM ATP; four separate determinations
T1 construct: purchased Invitrogen
T1 sequence (P35968 834-1162 limits assumed): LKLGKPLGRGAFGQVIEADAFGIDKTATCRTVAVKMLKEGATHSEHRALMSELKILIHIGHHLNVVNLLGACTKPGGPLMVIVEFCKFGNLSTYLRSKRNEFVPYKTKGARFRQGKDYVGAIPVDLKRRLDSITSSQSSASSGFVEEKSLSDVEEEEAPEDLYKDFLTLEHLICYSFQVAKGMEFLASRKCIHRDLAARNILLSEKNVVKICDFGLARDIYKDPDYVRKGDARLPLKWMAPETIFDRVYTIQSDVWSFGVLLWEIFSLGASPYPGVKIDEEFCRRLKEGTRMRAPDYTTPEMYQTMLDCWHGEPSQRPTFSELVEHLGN
Procedure: The compounds were assessed for VEGFR-2 inhibition activity using the Z′-LYTE-Tyr1 Peptide assay kit (according to the procedures recommended by the manufacturer Invitrogen, Cat. PV3190) [14]. Briefly, assays were performed in a total of 20 μL in 384-well plates using fluorescence resonance energy transfer technology. A Tyr1 substrate (coumarin-fluorescein double-labeled peptide) at 1.0 μM was incubated for 1 h with 4 μg/mL VEGFR-2, 10 μM ATP, and inhibitors at room temperature in 50 mM Hepes/Na (pH 7.5), 10 mM MgCl2, 2.0 mM MnCl2, 2.5 mM DTT, 0.10 mM orthovanadate, and 0.01% bovine serum albumin. […] After a second incubation of 1 hour, a stop reagent was added to each well.

HUVECs [1] = experiment: MTS toxicity (cell viability) assay in HUVECs; assay type: cell-based, human; conditions: 24 h, control 2.33 ± 0.06 O.D., mean ± SEM
Procedure: (§1) Human umbilical vein endothelial cells (HUVECs) were obtained from the ScienceCell Research Labs (San Diego, CA, USA), HUVECs were seeded on plates coated with 0.2% gelatin (Sigma-Aldrich, Sintra, Portugal) and cultured in M199 medium (Sigma-Aldrich, Sintra, Portugal) supplemented with 20% fetal bovine serum (FBS) (Invitrogen Life Technologies, Scotland, UK), 1% penicillin/streptomycin (Invitrogen Life Technologies), 0.01% heparin (Sigma-Aldrich), and […] endothelial cell growth supplement (Biomedical Technologies Inc., MA, USA) and maintained at 37°C in a humidified 5% carbon dioxide atmosphere. Cells were kept between passages 3 and 8 for every experiment. The test compounds were dissolved in DMSO and added to cell cultures at a concentration of 0.1–10 μM. Incubations were performed for 24 h in medium supplemented with 2% FBS, 1% penicillin/streptomycin, and 60 ng/mL of the vascular endothelial growth factor (Sigma-Aldrich, Sintra, Portugal). Control cells were incubated with vehicle (DMSO at 0.1% in every culture).
HUVECs (2 × 10^5 cells/mL) were allowed to grow for 24 h and then incubated with the test compounds at a range concentration between 0.1 and 10 μM or control (0.1% DMSO) for 24 h. After the incubation period, cells were washed and their viability was assessed using Cell Titer 96 Aqueous ONE Solution Reagent MTS [3-(4,5-dimethylthiazol-2-yl)-5-(3-carboxymethoxyphenyl)-2-(4-sulfophenyl)-2H-tetrazolium] colorimetric assay (Promega, Madison, USA), according to the instructions provided by the manufacturer and as previously described. Optical density was measured at 492 nm. Three independent experiments were performed, and the results were expressed as mean ± SEM.

HUVECs [2] = experiment: TUNEL cell apoptosis assay in HUVECs; assay type: cell-based, human; conditions: 24 h; for Effect on apoptosis (TUNEL): 0.1, 0.5 and 1 μM, statistical significance only for 2a at the highest concentration
Procedure: as §1
HUVECs (6 × 10^4 cells/mL) were grown for 24 h on glass coverslips and incubated with different concentrations (0.1–1 μM) of the tested compounds. TUNEL assay was performed using the In Situ Cell Death Detection kit (Roche Diagnostics, Mannheim, Germany), according to the manufacturer's instruction and as previously reported. Immunofluorescence was visualized under a fluorescence microscope (Olympus, BH-2, UK). The percentage of stained cells was evaluated by counting the cells stained with TUNEL (apoptotic cells) divided by the total number of nuclei counterstained with DAPI (Invitrogen, CA, USA) at a 200x magnification field. One thousand nuclei were evaluated. Results were expressed as percentage of control (100%).

[3] = system: phosphorylated (activated) VEGFR-2; experiment: Western blotting of phosphorylated (active) and total VEGFR-2 in HUVECs; assay type: cell-based, human; conditions: 1 μM, normalized with total VEGFR-2
Procedure: as §1
Proteins were isolated from HUVEC lysates using RIPA (Chemicon International, CA, USA). Proteins were quantified using a spectrophotometer (Jenway, 6405 UV/vis, Essex, UK), and 20 μg of protein were subjected to 8% SDS-PAGE with a 5% stacking gel. After electrophoresis, proteins were blotted into a Hybond nitrocellulose membrane (Amersham, Arlington, VA, USA). Immunodetection for total VEGFR-2 (1 : 1000; Cell Signaling, MA, USA), phosphorylated (activated) VEGFR-2 (1 : 750; Santa Cruz Biotechnology, CA, USA), and β-actin (1 : 3000; Abcam, Cambridge, UK) was accomplished with enhanced chemiluminescence (ECL kit, Amersham, Arlington, USA). […] The relative intensity of each protein blotting analysis was measured using a computerized software program (Bio-Rad, CA, USA), and the expression of activated and total VEGFR-2 were normalized with total VEGFR-2 and β-actin bands, respectively, to compare the expression of proteins in different treatment groups.

| SMILES | melting point [°C] | IC50 (VEGFR-2) [µM] | Viability of HUVEC (MTS optical density) (HUVECs [1]; 10 μM) [O.D.] | Effect on apoptosis (TUNEL) (HUVECs [2]) | Formation of the active (phosphorylated) form of VEGFR-2 [3] | Viability of HUVEC (MTS optical density) (HUVECs [1]; 5.0 μM) [O.D.] | Increase in apoptosis (TUNEL) comparing with untreated cells (HUVECs [2]; highest concentration tested (1 μM)) [%] |
| --- | --- | --- | --- | --- | --- | --- | --- |
| COc1ccc(NC(=O)Nc2ccc(Oc3ncnc4c(C)csc34)cc2)cc1 [Compound 2e, 1-(4-Methoxyphenyl)-3-[4-(7-methylthieno[3,2-d]pyrimidin-4-yloxy)phenyl]urea] | 248.4 to 249.6 | > 100 |  |  |  |  |  |
| N#Cc1ccc(NC(=O)Nc2ccc(Oc3ncnc4ccsc34)cc2)cc1 [Compound 2c, 1-(4-Cyanophenyl)-3-[4-(thieno[3,2-d]pyrimidin-4-yloxy)phenyl]urea] |  | 0.15 | 1.96 ± 0.02 | increase in apoptosis | did not significantly inhibit |  |  |
| Cc1csc2c(Oc3ccc(NC(=O)Nc4ccc(C#N)cc4)cc3)ncnc12 [Compound 2f, 1-(4-Cyanophenyl)-3-[4-(7-methylthieno[3,2-d]pyrimidin-4-yloxy)phenyl]urea] |  | > 100 |  |  |  |  |  |
| COc1ccc(NC(=O)Nc2ccc(Oc3ncnc4ccsc34)cc2)cc1 [Compound 2b, 1-(4-Methoxyphenyl)-3-[4-(thieno[3,2-d]pyrimidin-4-yloxy)phenyl]urea] |  | 0.188 | 1.82 ± 0.04 | increase in apoptosis | significantly decrease | 1.84 ± 0.05 |  |

Now from value to compound, other results behind:

| melting point [°C] | IC50 (VEGFR-2) [µM] | SMILES | Viability of HUVEC (MTS optical density) (HUVECs [1]; 10 μM) [O.D.] | Effect on apoptosis (TUNEL) (HUVECs [2]) | Formation of the active (phosphorylated) form of VEGFR-2 [3] | Viability of HUVEC (MTS optical density) (HUVECs [1]; 5.0 μM) [O.D.] | Increase in apoptosis (TUNEL) comparing with untreated cells (HUVECs [2]; highest concentration tested (1 μM)) [%] |
| --- | --- | --- | --- | --- | --- | --- | --- |
| 285.7 to 287.3 | > 100 | Cc1csc2c(Oc3ccc(NC(=O)Nc4ccccc4)cc3)ncnc12 [Compound 2d, 1-Phenyl-3-[4-(7-Methylthieno[3,2-d]pyrimidin-4-yloxy)phenyl]urea] |  |  |  |  |  |
|  | 0.199 | O=C(Nc1ccccc1)Nc1ccc(Oc2ncnc3ccsc23)cc1 [Compound 2a, 1-Phenyl-3-[4-(thieno[3,2-d]pyrimidin-4-yloxy)phenyl]urea] | 1.99 ± 0.03 | increase in apoptosis | significantly decrease | 2.00 ± 0.06 | 32.8 ± 1.23 |
